Laboratory results: patent publication US8999957B2, “Heterocyclic compounds as ERK inhibitors” (Merck Sharp & Dohme Corp., priority 2010, dated 2015)

The molecules below were run against fully phosphorylated, mouse aERK2 enzyme (Mus musculus (Mouse), UniProt P63085) (assay: Active ERK2 (aERK) IMAP-FP assay, condition 2). Conditions: aERK assay condition 2, 30 uM ATP; read-out: aERK IC50.
Type: biochemical
Description: Active ERK2 (aERK) Assay: (Unless Indicated Otherwise, the Data Provided for aERK was obtained using Condition 1)
Activated ERK2 activity was determined in an IMAP-FP assay (Molecular Devices). […] Phosphorylation reactions were allowed to proceed for 40-45 minutes and were immediately quenched by the addition of 60 μL IMAP detection beads (1:1000 dilutions) in IMAP binding buffer. Plates were read on EnVision reader after 30 minutes binding equilibration.

fully phosphorylated, mouse aERK2 enzyme, sequence (P63085 whole entry): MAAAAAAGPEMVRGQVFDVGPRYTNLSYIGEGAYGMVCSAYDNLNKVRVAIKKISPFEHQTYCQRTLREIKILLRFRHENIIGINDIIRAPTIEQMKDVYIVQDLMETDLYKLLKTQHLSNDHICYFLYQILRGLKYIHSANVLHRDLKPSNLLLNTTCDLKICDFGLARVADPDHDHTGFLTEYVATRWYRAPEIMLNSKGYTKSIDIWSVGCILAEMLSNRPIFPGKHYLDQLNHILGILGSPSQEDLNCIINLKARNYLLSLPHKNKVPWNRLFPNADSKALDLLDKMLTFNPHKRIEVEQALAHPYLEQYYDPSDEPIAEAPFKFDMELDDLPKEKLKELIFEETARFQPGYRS

Question: `COc1cccc(F)c1CN1C[C@H](NC(=O)c2ccc3[nH]nc(-c4ccnc(C)c4)c3c2)CC[C@H]1C(=O)Nc1nccs1` [N-[(3R,6S)-1-(2-fluoro-6-methoxybenzyl)-6-(1,3-thiazol-2-ylcarbamoyl)piperidin-3-yl]-3-(2-methylpyridin-4-yl)-1H-indazole-5-carboxamide] was tested. Which IC50 did it give?
Answer: 14 nM

Question: With `COc1cccc(F)c1CN1C[C@H](NC(=O)c2ccc3[nH]nc(-c4ccnc(C)c4)c3c2)CC[C@H]1C(=O)Nc1cccnc1` [N-[(3R,6S)-1-(2-fluoro-6-methoxybenzyl)-6-(pyridin-3-ylcarbamoyl)piperidin-3-yl]-3-(2-methylpyridin-4-yl)-1H-indazole-5-carboxamide] as the molecule, how does the IC50 read?
Answer: 4.1 nM

Question: Which IC50 does the source give for `COc1cccc(F)c1CN1C[C@H](NC(=O)c2ccc3[nH]nc(-c4ccnc(C)c4)c3c2)CC[C@H]1C(=O)Nc1ccncc1` [N-[(3R,6S)-1-(2-fluoro-6-methoxybenzyl)-6-(pyridin-4-ylcarbamoyl)piperidin-3-yl]-3-(2-methylpyridin-4-yl)-1H-indazole-5-carboxamide] here?
Answer: 3 nM

Question: How did the IC50 turn out when `COc1cccc(F)c1CN1C[C@H](NC(=O)c2ccc3[nH]nc(-c4ccnc(C)c4)c3c2)CC[C@H]1C(=O)NCC1(CO)CCCC1` [N-[(3R,6S)-1-(2-fluoro-6-methoxybenzyl)-6-({[1-(hydroxymethyl)cyclopentyl]methyl}carbamoyl)piperidin-3-yl]-3-(2-methylpyridin-4-yl)-1H-indazole-5-carboxamide] was run?
Answer: 8.8 nM

Question: `COc1cccc(F)c1CN1C[C@H](NC(=O)c2ccc3[nH]nc(-c4ccnc(C)c4)c3c2)CC[C@H]1C(=O)NC[C@@H]1CC[C@@H](O)C1` [N-[(3R,6S)-1-(2-fluoro-6-methoxybenzyl)-6-({[(1R,3R)-3-hydroxycyclopentyl]methyl}carbamoyl)piperidin-3-yl]-3-(2-methylpyridin-4-yl)-1H-indazole-5-carboxamide] was tested. Which IC50 did it give?
Answer: 1.5 nM

Question: `COc1cccc(F)c1CN1C[C@H](NC(=O)c2ccc3[nH]nc(-c4ccnc(C)c4)c3c2)CC[C@H]1C(=O)NC[C@H]1CC[C@H](O)C1` [N-[(3R,6S)-1-(2-fluoro-6-methoxybenzyl)-6-({[(1S,3S)-3-hydroxycyclopentyl]methyl}carbamoyl)piperidin-3-yl]-3-(2-methylpyridin-4-yl)-1H-indazole-5-carboxamide] was tested. Which IC50 did it give?
Answer: 1.3 nM

Question: `COc1cccc(F)c1CN1C[C@H](NC(=O)c2ccc3[nH]nc(-c4ccnc(C)c4)c3c2)CC[C@H]1C(=O)NC1CC1` [N-[(3R,6S)-6-(cyclopropylcarbamoyl)-1-(2-fluoro-6-methoxybenzyl)piperidin-3-yl]-3-(2-methylpyridin-4-yl)-1H-indazole-5-carboxamide] was tested. Which IC50 did it give?
Answer: 3.4 nM

Same assay, conditions: active ERK2; read-out: aErk2 Ic50

Question: Which IC50 does the source give for `COc1cccc(F)c1CN1C[C@H](NC(=O)c2ccc3[nH]nc(-c4ccnc(C)c4)c3c2)CC[C@H]1C(=O)NN` [N-[(3R,6S)-1-(2-fluoro-6-methoxybenzyl)-6-(hydrazinocarbonyl)piperidin-3-yl]-3-(2-methylpyridin-4-yl)-1H-indazole-5-carboxamide] here?
Answer: 1 nM

Question: How did the IC50 turn out when `COc1cccc(F)c1CN1C[C@H](NC(=O)c2ccc3[nH]nc(-c4ccnc(C)c4)c3c2)CC[C@H]1C(=O)N1CCCO1` [N-[(3R,6S)-1-(2-fluoro-6-methoxybenzyl)-6-(isoxazolidin-2-ylcarbonyl)piperidin-3-yl]-3-(2-methylpyridin-4-yl)-1H-indazole-5-carboxamide] was run?
Answer: 10.5 nM

Question: `CNC(=O)[C@@H]1CC[C@@H](NC(=O)c2ccc3[nH]nc(-c4ccnc(C)c4)c3c2)CN1Cc1c(F)cccc1OC` [N-[(3R,6S)-1-(2-fluoro-6-methoxybenzyl)-6-(methylcarbamoyl)piperidin-3-yl]-3-(2-methylpyridin-4-yl)-1H-indazole-5-carboxamide] was tested. Which IC50 did it give?
Answer: 2.7 nM

Question: `CNC(=O)[C@@H]1CC[C@@H](NC(=O)c2ccc3[nH]nc(-c4ccncc4)c3c2)CN1Cc1c(F)cccc1OC` [N-[(3R,6S)-1-(2-fluoro-6-methoxybenzyl)-6-(methylcarbamoyl)piperidin-3-yl]-3-pyridin-4-yl-1H-indazole-5-carboxamide] was tested. Which IC50 did it give?
Answer: 3.2 nM

Question: For `COc1cccc(F)c1CN1C[C@H](NC(=O)c2ccc3[nH]nc(-c4ccnc(C)c4)c3c2)CC[C@H]1C(=O)N1CCOCC1` [N-[(3R,6S)-1-(2-fluoro-6-methoxybenzyl)-6-(morpholin-4-ylcarbonyl)piperidin-3-yl]-3-(2-methylpyridin-4-yl)-1H-indazole-5-carboxamide], which IC50 is on record?
Answer: 18.2 nM

Question: `COc1cccc(F)c1CN1C[C@H](NC(=O)c2ccc3[nH]nc(-c4ccncc4)c3c2)CC[C@H]1C(=O)N1CCCCC1` [N-[(3R,6S)-1-(2-fluoro-6-methoxybenzyl)-6-(piperidin-1-ylcarbonyl)piperidin-3-yl]-3-pyridin-4-yl-1H-indazole-5-carboxamide] was tested. Which IC50 did it give?
Answer: 59.9 nM

Question: Which IC50 does the source give for `COc1cccc(F)c1CN1C[C@H](NC(=O)c2ccc3[nH]nc(-c4ccncc4)c3c2)CC[C@H]1C(=O)N1CCCC1` [N-[(3R,6S)-1-(2-fluoro-6-methoxybenzyl)-6-(pyrrolidin-1-ylcarbonyl)piperidin-3-yl]-3-pyridin-4-yl-1H-indazole-5-carboxamide] here?
Answer: 35.5 nM

Question: With `CNC(=S)NNC(=O)[C@@H]1CC[C@@H](NC(=O)c2ccc3[nH]nc(-c4ccnc(C)c4)c3c2)CN1Cc1c(F)cccc1OC` [N-[(3R,6S)-1-(2-fluoro-6-methoxybenzyl)-6-{[2-(methylcarbamothioyl)hydrazino]-carbonyl}piperidin-3-yl]-3-(2-methylpyridin-4-yl)-1H-indazole-5-carboxamide] as the molecule, how does the IC50 read?
Answer: 1 nM

Question: With `O=C(N[C@@H]1CC[C@@H](C(=O)NCc2ccccc2)N(Cc2ccccc2)C1)c1ccc2[nH]nc(-c3ccncc3)c2c1` [N-[(3R,6S)-1-benzyl-6-(benzylcarbamoyl)piperidin-3-yl]-3-pyridin-4-yl-1H-indazole-5-carboxamide] as the molecule, how does the IC50 read?
Answer: 47.5 nM

Question: `CCNC(=O)[C@@H]1CC[C@@H](NC(=O)c2ccc3[nH]nc(-c4ccncc4)c3c2)CN1Cc1ccccc1` [N-[(3R,6S)-1-benzyl-6-(ethylcarbamoyl)-piperidin-3-yl]-3-pyridin-4-yl-1H-indazole-5-carboxamide] was tested. Which IC50 did it give?
Answer: 48.3 nM

Question: `COc1cccc(F)c1CN1C[C@H](NC(=O)c2ccc3[nH]nc(-c4ccnc(C)c4)c3c2)CC[C@H]1C(=O)N1CCC1` [N-[(3R,6S)-6-(azetidin-1-ylcarbonyl)-1-(2-fluoro-6-methoxybenzyl)piperidin-3-yl]-3-(2-methylpyridin-4-yl)-1H-indazole-5-carboxamide] was tested. Which IC50 did it give?
Answer: 34.9 nM

Question: How did the IC50 turn out when `CCCCN(CCCC)C(=O)[C@@H]1CC[C@@H](NC(=O)c2ccc3[nH]nc(-c4ccnc(C)c4)c3c2)CN1Cc1c(F)cccc1OC` [N-[(3R,6S)-6-(dibutylcarbamoyl)-1-(2-fluoro-6-methoxybenzyl)piperidin-3-yl]-3-(2-methylpyridin-4-yl)-1H-indazole-5-carboxamide] was run?
Answer: 502 nM

Question: For `CCN(CC)C(=O)[C@@H]1CC[C@@H](NC(=O)c2ccc3[nH]nc(-c4ccnc(C)c4)c3c2)CN1Cc1c(F)cccc1F` [N-[(3R,6S)-6-(diethylcarbamoyl)-1-(2,6-difluorobenzyl)piperidin-3-yl]-3-(2-methylpyridin-4-yl)-1H-indazole-5-carboxamide], which IC50 is on record?
Answer: 80.7 nM

Question: `CCN(CC)C(=O)[C@@H]1CC[C@@H](NC(=O)c2ccc3[nH]nc(-c4ccc5nc(C)sc5c4)c3c2)CN1Cc1c(F)cccc1OC` [N-[(3R,6S)-6-(diethylcarbamoyl)-1-(2-fluoro-6-methoxybenzyl)piperidin-3-yl]-3-(2-methyl-1,3-benzothiazol-6-yl)-1H-indazole-5-carboxamide] was tested. Which IC50 did it give?
Answer: 32.9 nM

Question: Which IC50 does the source give for `CCN(CC)C(=O)[C@@H]1CC[C@@H](NC(=O)c2ccc3[nH]nc(-c4ccnc(C)c4)c3c2)CN1Cc1c(F)cccc1OC` [N-[(3R,6S)-6-(diethylcarbamoyl)-1-(2-fluoro-6-methoxybenzyl)piperidin-3-yl]-3-(2-methylpyridin-4-yl)-1H-indazole-5-carboxamide] here?
Answer: 16.2 nM

Question: For `CCN(CC)C(=O)[C@@H]1CC[C@@H](NC(=O)c2ccc3[nH]nc(-c4ccnnc4)c3c2)CN1Cc1c(F)cccc1OC` [N-[(3R,6S)-6-(diethylcarbamoyl)-1-(2-fluoro-6-methoxybenzyl)piperidin-3-yl]-3-pyridazin-4-yl-1H-indazole-5-carboxamide], which IC50 is on record?
Answer: 137 nM

Question: For `CCN(CC)C(=O)[C@@H]1CC[C@@H](NC(=O)c2ccc3[nH]nc(-c4ccncc4)c3c2)CN1Cc1c(F)cccc1OC` [N-[(3R,6S)-6-(diethylcarbamoyl)-1-(2-fluoro-6-methoxybenzyl)piperidin-3-yl]-3-pyridin-4-yl-1H-indazole-5-carboxamide], which IC50 is on record?
Answer: 18.4 nM

Question: With `CCN(CC)C(=O)[C@@H]1CC[C@@H](NC(=O)c2ccc3[nH]nc(-c4ccnc(C)c4)c3c2)CN1Cc1ccccc1F` [N-[(3R,6S)-6-(diethylcarbamoyl)-1-(2-fluorobenzyl)piperidin-3-yl]-3-(2-methylpyridin-4-yl)-1H-indazole-5-carboxamide] as the molecule, how does the IC50 read?
Answer: 20.1 nM

Question: Which IC50 does the source give for `CCN(CC)C(=O)[C@@H]1CC[C@@H](NC(=O)c2ccc3[nH]nc(-c4ccnc(C)c4)c3c2)CN1CCc1ccccc1` [N-[(3R,6S)-6-(diethylcarbamoyl)-1-(2-phenylethyl)piperidin-3-yl]-3-(2-methylpyridin-4-yl)-1H-indazole-5-carboxamide] here?
Answer: 158 nM

Question: How did the IC50 turn out when `COc1cccc(F)c1CN1C[C@H](NC(=O)c2ccc3[nH]nc(-c4ccc5nc(C)sc5c4)c3c2)CC[C@H]1C(=O)N(C)C` [N-[(3R,6S)-6-(dimethylcarbamoyl)-1-(2-fluoro-6-methoxybenzyl)piperidin-3-yl]-3-(2-methyl-1,3-benzothiazol-6-yl)-1H-indazole-5-carboxamide] was run?
Answer: 48 nM

Question: For `COc1cccc(F)c1CN1C[C@H](NC(=O)c2ccc3[nH]nc(-c4ccnc(C)c4)c3c2)CC[C@H]1C(=O)N(C)C` [N-[(3R,6S)-6-(dimethylcarbamoyl)-1-(2-fluoro-6-methoxybenzyl)piperidin-3-yl]-3-(2-methylpyridin-4-yl)-1H-indazole-5-carboxamide], which IC50 is on record?
Answer: 37.8 nM
